Assay results taken from paper PMC1568752 (Environmental Health Perspectives, 1985).

Tests used:
rats = details: cited from earlier work
[1] = system: aryl hydrocarbon hydroxylase (AHH) induction in rat hepatoma H-4-II-E cells; details: Table 1, PCB congeners; cited from earlier work
[2] = system: ethoxyresorufin O-deethylase (EROD) induction in rat hepatoma H-4-II-E cells; details: Table 1, PCB congeners; cited from earlier work
[3] = system: hepatic microsomal AHH and EROD; test: In vivo induction of rat hepatic microsomal AHH and EROD; details: 300 umole/kg, immature male Wistar rats (Figure 7)
DMAP N-demethylase = test: In vivo induction of rat hepatic microsomal DMAP N-demethylase; details: 300 umole/kg, immature male Wistar rats (Figure 7)
[4] = injected intraperitoneally on days 1 and 3, 150 umole/kg per injection in corn oil, killed on day 6
pullets = details: eggs from pullets receiving the PCB in their diet at 20 ppm; cited from earlier work
[5] = target: T1, 2,3,7,8-TCDD hepatic cytosolic receptor protein (Rattus norvegicus, UniProt P41738); test: Competitive binding to the rat hepatic cytosolic 2,3,7,8-TCDD receptor protein; details: for competition with [3H]-2,3,7,8-TCDD for the receptor binding protein: dose-response competition experiments, at high concentrations
T1 sequence (P41738 10-853): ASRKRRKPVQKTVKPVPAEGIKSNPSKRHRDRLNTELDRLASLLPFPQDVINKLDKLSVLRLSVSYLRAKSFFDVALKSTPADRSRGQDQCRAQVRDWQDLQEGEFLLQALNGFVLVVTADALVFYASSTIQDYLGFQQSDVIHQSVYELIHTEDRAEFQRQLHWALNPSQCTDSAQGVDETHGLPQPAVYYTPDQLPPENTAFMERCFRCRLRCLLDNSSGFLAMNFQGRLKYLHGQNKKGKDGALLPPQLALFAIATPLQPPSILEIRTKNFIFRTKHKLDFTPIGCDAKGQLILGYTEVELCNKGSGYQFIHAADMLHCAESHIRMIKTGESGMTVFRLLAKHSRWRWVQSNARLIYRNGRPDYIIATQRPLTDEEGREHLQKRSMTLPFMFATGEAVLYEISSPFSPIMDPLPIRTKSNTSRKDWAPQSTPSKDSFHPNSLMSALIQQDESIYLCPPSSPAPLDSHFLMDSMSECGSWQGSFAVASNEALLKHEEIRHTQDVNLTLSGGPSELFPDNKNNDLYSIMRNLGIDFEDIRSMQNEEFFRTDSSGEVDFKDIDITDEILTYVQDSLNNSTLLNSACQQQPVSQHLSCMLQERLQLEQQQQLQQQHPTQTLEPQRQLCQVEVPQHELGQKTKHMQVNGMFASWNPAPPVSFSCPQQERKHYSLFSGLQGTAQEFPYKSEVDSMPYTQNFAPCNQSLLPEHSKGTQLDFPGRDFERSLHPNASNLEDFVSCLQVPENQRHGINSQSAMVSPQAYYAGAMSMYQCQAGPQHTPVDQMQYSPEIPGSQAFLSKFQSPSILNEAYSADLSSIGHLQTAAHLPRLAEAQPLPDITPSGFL

## Clc1ccc(-c2ccc(Cl)c(Cl)c2Cl)cc1Cl [2,3,3',4,4'-Penta, 2,3,3',4,4'-Pentachlorobiphenyl]
rats
  thymic atrophy: thymic atrophy
[1]
  -log EC50 AHH induction: 7.06
[2]
  -log EC50 EROD induction: 6.92

## N#Cc1ccc(-c2cc(Cl)c(Cl)c(Cl)c2Cl)cc1 [X = CN, 4'-Cyano-2,3,4,5-tetrachlorobiphenyl]
[3]
  in vivo induction of microsomal AHH and EROD: significantly induced both
DMAP N-demethylase
  in vivo induction of DMAP N-demethylase: inducers

## CC(C)c1ccc(-c2cc(Cl)c(Cl)c(Cl)c2Cl)cc1 [X = i-C3H7, 4'-Isopropyl-2,3,4,5-tetrachlorobiphenyl]
[4]
  Residue levels in rat liver: 1-4 ppm
[3]
  in vivo induction of microsomal AHH and EROD: significantly induced both
DMAP N-demethylase
  in vivo induction of DMAP N-demethylase: inactive

## Clc1ccc(-c2cc(Cl)c(Cl)cc2Cl)cc1Cl [2,3',4,4',5-Penta, 2,3',4,4',5-pentachlorobiphenyl]
rats
  thymic atrophy: thymic atrophy
[1]
  -log EC50 AHH induction: 4.94
pullets
  embryo mortality: 100%
[2]
  -log EC50 EROD induction: 5.05

## Clc1ccc(-c2cc(Cl)c(Cl)c(Cl)c2)c(Cl)c1 [2',3,4,4',5-Penta]
[1]
  -log EC50 AHH induction: 5.41
[2]
  -log EC50 EROD induction: 5.95

## Clc1ccc(-c2cc(Cl)c(Cl)c(Cl)c2Cl)cc1 [2,3,4,4',5-Penta, 2,3,4,4',5-Pentachlorobiphenyl]
[1]
  -log EC50 AHH induction: 6.02
[3]
  in vivo induction of microsomal AHH and EROD: significantly induced both
[2]
  -log EC50 EROD induction: 6.25
DMAP N-demethylase
  in vivo induction of DMAP N-demethylase: inducers

## Clc1cc2c(cc1Cl)Oc1cc(Cl)c(Cl)cc1O2 [TCDD, 2,3,7,8-tetrachlorodibenzo-p-dioxin, reference compound]
[1]
  -log EC50 AHH induction: 10.02
[2]
  -log EC50 EROD induction: 10.10

## O=[N+]([O-])c1ccc(-c2cc(Cl)c(Cl)c(Cl)c2Cl)cc1 [NO2, 4'-Nitro-2,3,4,5-tetrachlorobiphenyl]
[3]
  in vivo induction of microsomal AHH and EROD: significantly induced both
DMAP N-demethylase
  in vivo induction of DMAP N-demethylase: inducers

## CC(C)(C)c1ccc(-c2cc(Cl)c(Cl)c(Cl)c2Cl)cc1 [C(CH3)3, 4'-tert-butyl-2,3,4,5-tetrachlorobiphenyl]
[3]
  in vivo induction of microsomal AHH and EROD: significantly induced both
DMAP N-demethylase
  in vivo induction of DMAP N-demethylase: inactive

## Clc1cc(-c2ccc(I)cc2)c(Cl)c(Cl)c1Cl [X= I, 4'-Iodo-2,3,4,5-tetrachlorobiphenyl]
DMAP N-demethylase
  in vivo induction of DMAP N-demethylase: inactive

## Cc1ccc(-c2cc(Cl)c(Cl)c(Cl)c2Cl)cc1 [X = CH3, 4'-Methyl-2,3,4,5-tetrachlorobiphenyl]
[3]
  in vivo induction of the cytochrome P-450-dependent monooxygenases (AHH, EROD, DMAP N-demethylase): do not induce any

## Clc1ccc(-c2ccc(Cl)c(Cl)c2)cc1Cl [3,3',4,4'-Tetra, 3,3',4,4'-tetrachlorobiphenyl]
[1]
  -log EC50 AHH induction: 7.55
[2]
  -log EC50 EROD induction: 7.05

## Fc1ccc(-c2cc(Cl)c(Cl)c(Cl)c2Cl)cc1 [X = F, 4'-Fluoro-2,3,4,5-tetrachlorobiphenyl]
[3]
  in vivo induction of microsomal AHH and EROD: significantly induced both
DMAP N-demethylase
  in vivo induction of DMAP N-demethylase: inducers

## FC(F)(F)c1ccc(-c2cc(Cl)c(Cl)c(Cl)c2Cl)cc1 [X = CF3, 4'-Trifluoromethyl-2,3,4,5-tetrachlorobiphenyl]
[3]
  in vivo induction of microsomal AHH and EROD: significantly induced both
DMAP N-demethylase
  in vivo induction of DMAP N-demethylase: inactive

## Clc1cc(Cl)c(-c2cc(Cl)c(Cl)cc2Cl)cc1Cl [2,2',4,4',5,5'-Hexa, 2,2',4,4',5,5'-hexachlorobiphenyl]
[5]
  competition with [3H]-2,3,7,8-TCDD for the receptor binding protein: some competition

## CC(=O)c1ccc(-c2cc(Cl)c(Cl)c(Cl)c2Cl)cc1 [X = COCH3, 4'-Acetyl-2,3,4,5-tetrachlorobiphenyl]
[3]
  in vivo induction of the cytochrome P-450-dependent monooxygenases (AHH, EROD, DMAP N-demethylase): do not induce any

## Clc1cc(-c2ccc(Cl)c(Cl)c2Cl)cc(Cl)c1Cl [2,3,3',4,4',5'-Hexa, 2,3,3',4,4',5'-hexachlorobiphenyl]
rats
  thymic atrophy: thymic atrophy
[1]
  -log EC50 AHH induction: 6.15
[2]
  -log EC50 EROD induction: 5.90

## Cc1ccc2cc3c(ccc4ccccc43)c3c2c1CC3 [3-MC, 3-methylcholanthrene, reference compound]
[1]
  -log EC50 AHH induction: 5.89
[2]
  -log EC50 EROD induction: 6.20

## Clc1ccc(-c2cc(Cl)c(Cl)c(Cl)c2)cc1Cl [3,3',4,4'5-Penta, 3,3',4,4',5-pentachlorobiphenyl]
[1]
  -log EC50 AHH induction: 9.62
[2]
  -log EC50 EROD induction: 9.61

## Clc1cc(-c2ccc(-c3ccccc3)cc2)c(Cl)c(Cl)c1Cl [C6H5, 4'-Phenyl-2,3,4,5-tetrachlorobiphenyl]
[3]
  in vivo induction of microsomal AHH and EROD: significantly induced both

## Clc1ccc(-c2ccc(Cl)c(Cl)c2Cl)cc1 [2,3,4,4'-Tetra]
[1]
  -log EC50 AHH induction: 4.96
[2]
  -log EC50 EROD induction: 5.72

## FC(F)(F)c1ccc(-c2ccc(C(F)(F)F)c(C(F)(F)F)c2)cc1 [3,4,4'-tritrifluoromethylbiphenyl]
[5]; displacement of [3H]-2,3,7,8-TCDD
  competitive binding affinity for the receptor protein: unexpectedly low

## Oc1ccc(-c2cc(Cl)c(Cl)c(Cl)c2Cl)cc1 [X = OH, 4'-Hydroxy-2,3,4,5-tetrachlorobiphenyl]
[3]
  in vivo induction of the cytochrome P-450-dependent monooxygenases (AHH, EROD, DMAP N-demethylase): do not induce any

## Clc1cc(-c2ccccc2)c(Cl)c(Cl)c1Cl [2,3,4,5-Tetra, 2,3,4,5-tetrachlorobiphenyl]
[3]
  in vivo induction of the cytochrome P-450-dependent monooxygenases (AHH, EROD, DMAP N-demethylase): do not induce any
[5]
  competition with [3H]-2,3,7,8-TCDD for the receptor binding protein: some competition

## Clc1cc(Cl)c(-c2cc(Cl)c(Cl)c(Cl)c2)cc1Cl [2,3',4,4',5,5'-Hexa]
[1]
  -log EC50 AHH induction: 4.88
[2]
  -log EC50 EROD induction: 5.05

## Clc1cc(-c2ccc(Br)cc2)c(Cl)c(Cl)c1Cl [X = Br, 4'-Bromo-2,3,4,5-tetrachlorobiphenyl]
[3]
  in vivo induction of microsomal AHH and EROD: significantly induced both
DMAP N-demethylase
  in vivo induction of DMAP N-demethylase: inducers

## Clc1ccc(-c2cc(Cl)c(Cl)c(Cl)c2Cl)cc1Cl [2,3,3',4,4',5-Hexa, 2,3,3',4,4',5-hexachlorobiphenyl]
rats
  thymic atrophy: thymic atrophy
[1]
  -log EC50 AHH induction: 5.68
[2]
  -log EC50 EROD induction: 6.05
